Experimental data taken from patent US20120142623A1, “Compositions And Methods For Predicting Inhibitors Of Protein Targets” (priority 2006, published 2012).
Values joined by “and” are separate entries in the source; they are usually repeats but may differ in a detail not shown here. Equal entries are not always repeated. Where two headings read alike, the source gives them in different places.

Experiments:
[1] = tested on: P. falciparum; conditions: Table 3 section B, high throughput screen [27, 28], cited from earlier work; for EC50: read-out: ED50 in 3D7
[2] = tested on: chloroquine-sensitive strain 3D7 of P. falciparum; test: P. falciparum growth inhibition in culture, strain 3D7; format: cell-based, Plasmodium falciparum; conditions: for result of the 16 tested inhibitors in words (binding): summary of Table 5
[3] = tested on: chloroquine-resistant strain K1 of P. falciparum; test: P. falciparum growth inhibition in culture, strain K1; format: cell-based, Plasmodium falciparum
[4] = biological target: Tat (Human immunodeficiency virus type 1 group M subtype B, UniProt P04608); conditions: HIV-1 target Tat; read-out: Inhibitory effect (uM), IC50, Tat; cited from earlier work
[5] = biological target: HSV protease; test: Surface Plasmon Resonance, HSV protease; format: binding; conditions: SPR, FIG. 4
Protocol: (§1) Four inhibitors were evaluated; our top ranking one (TMPyP4) clearly binds to all three proteases as predicted. […] A third inhibitor, GW8510, predicted to bind fails (i.e., a misprediction). […] Our inhibitor prediction is completely consistent with the observed experimental data which is verified further by cell culture studies in FIG. 4 and compared to existing antiherpes drugs.

[6] = biological target: CMV protease (Human cytomegalovirus, UniProt P16753); test: Surface Plasmon Resonance, CMV protease; format: binding; parameters: herpes simplex virus (HSV) proteases (including HSV2, VZV, EBV, CMV, and KSHV); conditions: SPR, FIG. 4
Protocol: as §1

[7] = biological target: KSHV protease (Human herpesvirus 8 type P, UniProt Q2HRB6); test: Surface Plasmon Resonance, KSHV protease; format: binding; parameters: herpes simplex virus (HSV) proteases (including HSV2, VZV, EBV, CMV, and KSHV); conditions: SPR, FIG. 4
Protocol: as §1

[8] = biological target: Integrase (Human immunodeficiency virus type 1 group M subtype B, UniProt P04585); conditions: HIV-1 target Integrase; read-out: Inhibitory effect (uM), IC50, Integrase; cited from earlier work
[9] = tested on: HSV-1 strain F; test: HSV-1 infection of Vero cells, virus titer; format: cell-based; conditions: FIG. 5 bottom right panel; virus not named
[10] = tested on: HIV-1 gp41 HR1 wild-type and mutants; conditions: cited from earlier work
[11] = Table 3 section A, mean of at least two measurements, read-out: ED50 in 3D7
[12] = Table 5, P. falciparum ED50 in 3D7 and K1
[13] = Table 5, read-out: ED50 (μM) in 3D7
[14] = Table 3 section A, mean of at least two measurements, read-out: ED50 in K1
[15] = Table 5, read-out: ED50 (μM) in K1
[16] = Plasmodium falciparum, 3D7, Table 3 section A, mean of at least two measurements, read-out: ED50 in 3D7
[17] = Plasmodium falciparum, 3D7, Table 5, read-out: ED50 (μM) in 3D7
[18] = Plasmodium falciparum, K1, Table 3 section A, mean of at least two measurements, read-out: ED50 in K1
[19] = Plasmodium falciparum, K1, Table 5, read-out: ED50 (μM) in K1

COc1ccc(CCN2CCC(Nc3nc4ccccc4n3Cc3ccc(F)cc3)CC2)cc1 [Astemizole]
% Inhibition at 10 μM in [1]: 97.6%

CC1(C)S[C@@H]2[C@H](NC(=O)[C@H](NC(=O)N3CCNC3=O)c3ccccc3)C(=O)N2[C@H]1C(=O)O [Azlocillin]
EC50 [1]: 1.5 µM

CN1CCCC1CCn1cc(C2=C(c3c[nH]c4ccccc34)C(=O)NC2=O)c2ccccc21 (stereo not drawn) [Bisindolylmaleimide II]
EC50 [2, 11]: 1 to 10 µM
experimentally determined to work [2, 12]: N
EC50 [2, 13]: 1 to 10 µM
EC50 [3, 14]: 1 to 10 µM
EC50 [3, 15]: 1 to 10 µM

Cl.Cn1cc(C2=C(c3c4n(c5ccccc35)CCC(CN)C4)C(=O)NC2=O)c2ccccc21 (stereo not drawn) [Bisindolylmaleimide X]
EC50 [2, 11]: 1 to 10 µM
experimentally determined to work [2, 12]: N
EC50 [2, 13]: 1 to 10 µM
EC50 [3, 14]: 1 to 10 µM
EC50 [3, 15]: 1 to 10 µM

Oc1ccc(Cc2nc3c(Cc4ccccc4)nc(-c4ccc(O)cc4)cn3c2O)cc1 [Coelenterazine]
EC50 [2, 16]: 10 to 40 µM
EC50 [2, 17]: 10 to 40 µM
experimentally determined to work [2, 12]: N
EC50 [3, 18]: 1 to 10 µM
EC50 [3, 19]: 1 to 10 µM

COc1cc(/C=C/C(=O)CC(=O)/C=C/c2ccc(O)c(OC)c2)ccc1O [Curcumin]
IC50 [4]: < 30 µM

COc1cccc2c1C(=O)c1c(O)c3c(c(O)c1C2=O)C[C@@](O)(C(C)=O)C[C@@H]3O[C@H]1C[C@H](N)[C@H](O)[C@H](C)O1 [Daunorubicin]
EC50 [2, 16]: 0.13 µM
EC50 [2, 17]: 0.125 µM
experimentally determined to work [2, 12]: Y (Y—yes (<=1uM ED50))
result of the 16 tested inhibitors in words (binding) [2]: very strong binding
EC50 [3, 18]: < 1 µM
EC50 [3, 19]: < 1 µM
% Inhibition at 10 μM in [1]: 99.6%

CN1C[C@H](C(=O)N[C@]2(C)O[C@@]3(O)[C@@H]4CCCN4C(=O)[C@H](Cc4ccccc4)N3C2=O)C[C@@H]2c3cccc4[nH]cc(c34)C[C@H]21 [Dihydroergotamine]
% Inhibition at 10 μM in [1]: 88.1%
EC50 [1]: 4 µM and 3 µM

COc1cccc2c1C(=O)c1c(O)c3c(c(O)c1C2=O)C[C@@](O)(C(=O)CO)C[C@@H]3O[C@H]1C[C@H](N)[C@@H](O)[C@H](C)O1 [Epirubicin]
% Inhibition at 10 μM in [1]: 98.4%

O=C1Nc2ccc3ncsc3c2/C1=C/Nc1ccc(S(=O)(=O)Nc2ccccn2)cc1 [GW8510]
EC50 [2, 11]: 1 to 10 µM
experimentally determined to work [2, 12]: N
EC50 [2, 13]: 1 to 10 µM
EC50 [3, 14]: 1 µM
EC50 [3, 15]: 1 µM
disassociation constant (Kd), HSV protease [5]: fails
disassociation constant (Kd), CMV protease [6]: fails
disassociation constant (Kd), KSHV protease [7]: fails

CCN(CCO)CCCC(C)Nc1ccnc2cc(Cl)ccc12 (stereo not drawn) [Hydroxychloroquine]
IC50 [8]: > 100 µM

CN([C@@H](Cc1ccc(OS(=O)(=O)c2cccc3cnccc23)cc1)C(=O)N1CCN(c2ccccc2)CC1)S(=O)(=O)c1cccc2cnccc12 [KN62]
EC50 [2, 11]: 0.69 µM
experimentally determined to work [2, 12]: Y (Y—yes (<=1uM ED50))
EC50 [2, 13]: 0.69 µM
result of the 16 tested inhibitors in words (binding) [2]: very strong binding
EC50 [3, 14]: < 1 µM
EC50 [3, 15]: < 1 µM

CN1C[C@H](CNC(=O)OCc2ccccc2)C[C@@H]2c3cccc4c3c(cn4C)C[C@H]21 [Metergoline]
% Inhibition at 10 μM in [1]: 85.9%
EC50 [1]: 5.4 µM

CN(Cc1cnc2nc(N)nc(N)c2n1)c1ccc(C(=O)N[C@@H](CCC(=O)O)C(=O)O)cc1 [Methotrexate]
% Inhibition at 10 μM in [1]: 98.4%
EC50 [1]: 0.05 µM

O=C1c2ccc3c4ccc5c6c(ccc(c7ccc(c2c37)C(=O)N1CCN1CCCCC1)c64)C(=O)N(CCN1CCCCC1)C5=O [PIPER]
EC50 [2, 11]: 10 to 40 µM
experimentally determined to work [2, 12]: N
EC50 [2, 13]: 10 to 40 µM
EC50 [3, 14]: 10 to 40 µM
EC50 [3, 15]: 10 to 40 µM

C=CC1=C(C)c2cc3[nH]c(cc4nc(cc5[nH]c(cc1n2)c(C)c5CCC(=O)O)C(CCC(=O)O)=C4C)c(C)c3C=C [Protoporphrin, Protoporphyrin IX]
EC50 [2, 16]: 10 to 40 µM
EC50 [2, 17]: 10 to 40 µM
experimentally determined to work [2, 12]: N
EC50 [3, 18]: 10 to 40 µM
EC50 [3, 19]: 10 to 40 µM

COc1ccc(C[C@H](N)C(=O)N[C@H]2[C@@H](O)[C@H](n3cnc4c(N(C)C)ncnc43)O[C@@H]2CO)cc1 [Puromycin]
% Inhibition at 10 μM in [1]: 98.9%

Cc1c(C(=O)c2cccc3ccccc23)c2cccc3c2n1[C@H](CN1CCOCC1)CO3 [R-(+)-WIN55212-2]
experimentally determined to work [2]: N
EC50 [2, 11]: 10 to 40 µM
EC50 [2, 13]: 10 to 40 µM
EC50 [3, 14]: 10 to 40 µM
EC50 [3, 15]: 10 to 40 µM

O=C(c1ccc(OCCN2CCCCC2)cc1)c1c(-c2ccc(O)cc2)sc2cc(O)ccc12 [Raloxifene]
% Inhibition at 10 μM in [1]: 97.1%
EC50 [1]: < 0.5 µM

Cc1nc2n(c(=O)c1CCN1CCC(c3noc4cc(F)ccc34)CC1)CCCC2 [Risperidone]
% Inhibition at 10 μM in [1]: 67.5%

CC[C@H](CO)Nc1nc(NCc2ccccc2)c2ncn(C(C)C)c2n1 [Roscovitine]
experimentally determined to work [2, 12]: N

Cc1ccc(NC(=O)c2ccc(CN3CCN(C)CC3)cc2)cc1Nc1nccc(-c2cccnc2)n1 [STI-571, Imatinib]
result of the 16 tested inhibitors in words (binding) [2]: moderate binding

O=CN1CCN(c2ccc(/C=C3\C(=O)Nc4ccccc43)cc2)CC1 [SU4984]
EC50 [2, 11]: > 40 µM
experimentally determined to work [2, 12]: N

Cc1c[nH]c(/C=C2\C(=O)Nc3ccccc32)c1CCC(=O)O [SU5402]
EC50 [2, 11]: > 40 µM
experimentally determined to work [2, 12]: N

Cc1cc(C)c(/C=C2\C(=O)Nc3ccc(Cl)cc32)[nH]1 [SU5614]
experimentally determined to work [2, 12]: N

CN(C)S(=O)(=O)c1ccc2c(c1)/C(=C/c1cc3c([nH]1)CCCC3)C(=O)N2 [SU6656]
EC50 [2, 11]: > 40 µM
experimentally determined to work [2, 12]: N
EC50 [2, 13]: 10 µM
disassociation constant (Kd), HSV protease [5]: verified to not bind
disassociation constant (Kd), CMV protease [6]: verified to not bind
disassociation constant (Kd), KSHV protease [7]: verified to not bind

O=C(O)CCC(=O)Nc1ccc(S(=O)(=O)Nc2nccs2)cc1 [Succinylsulfathiazole]
EC50 [2, 16]: > 40 µM
EC50 [2, 17]: > 40 µM
experimentally determined to work [2, 12]: N
EC50 [3, 18]: > 40 µM
EC50 [3, 19]: > 40 µM

O=C(O)c1cc(/N=N/c2ccc(S(=O)(=O)Nc3ccccn3)cc2)ccc1O [Sulfasalazine]
EC50 [2, 16]: > 40 µM
EC50 [2, 17]: > 40 µM
experimentally determined to work [2, 12]: N
EC50 [3, 18]: > 40 µM
EC50 [3, 19]: > 40 µM

CC[C@@]1(O)C(=O)OCc2c1cc1n(c2=O)Cc2cc3c(CN(C)C)c(O)ccc3nc2-1 [Topotecan]
% Inhibition at 10 μM in [1]: 80.1%

C[C@]12C=CC(=O)C=C1CC[C@@H]1C2=CC[C@]2(C)[C@@H](C(=O)CN3CCN(c4cc(N5CCCC5)nc(N5CCCC5)n4)CC3)CC[C@@H]12.O=C(O)/C=C\C(=O)O [U-74389G]
EC50 [2, 11]: 0.83 µM
experimentally determined to work [2, 12]: Y (Y—yes (<=1uM ED50))
EC50 [2, 13]: 0.825 µM
result of the 16 tested inhibitors in words (binding) [2]: very strong binding
EC50 [3, 14]: < 1 µM
EC50 [3, 15]: < 1 µM

CC[C@]1(O)C[C@@H]2CN(CCc3c([nH]c4ccccc34)[C@@](C(=O)OC)(c3cc4c(cc3OC)N(C)[C@H]3[C@@](O)(C(N)=O)[C@H](O)[C@]5(CC)C=CCN6CC[C@]43[C@@H]65)C2)C1 [Vindesine]
% Inhibition at 10 μM in [1]: 81.9%

Nc1nc2c(ncn2COCCO)c(=O)[nH]1 [acylovir]
effectiveness after passage for several cycles with both acylovir and TMPyP4 [9]: complete resistance to acylovir occurs

Bisindolylmaleimide VII
EC50 [2, 11]: 1 to 10 µM
experimentally determined to work [2, 12]: N
EC50 [2, 13]: 1 to 10 µM
EC50 [3, 14]: 1 to 10 µM
EC50 [3, 15]: 1 to 10 µM

enfuvirtide
EC50 ([10]; HR1 Wild-type): 0.012 µg/mL
EC50 ([10]; HR1 mutation N42T + N43K): 0.388 µg/mL
EC50 ([10]; HR1 mutation N42T + N43S): 0.727 µg/mL
EC50 ([10]; HR1 mutation N42T): 0.045 µg/mL
EC50 ([10]; HR1 mutation V38A + N42D): 1.685 µg/mL
EC50 ([10]; HR1 mutation V38A + N42T): 1.782 µg/mL
EC50 ([10]; HR1 mutation V38A): 0.188 µg/mL
EC50 ([10]; HR1 mutation V38E + N42S): 6.156 µg/mL
